{
  "source": "patent US10694749B2",
  "about": "“Insecticide formulation” (Wellmark International, priority 2016, dated 2020)",
  "origin": "cited, not measured here",
  "system": "Mosquito Larvae",
  "conditions": "after ingestion",
  "data": [
    {"substance": "Bacillus thuringiensis israelensis [BTI]", "values": [
      {"measurement": "time to death of the first larvae after ingesting the bacteria", "result": "15 to 20", "unit": "min"}
    ]}
  ]
}
